Measured values as given in PMC9197168, “Structural Characterization of Mycobacterium abscessus Phosphopantetheine Adenylyl Transferase Ligand Interactions: Implications for Fragment-Based Drug Design” (Frontiers in Molecular Biosciences, 2022).
Read-outs that look alike come from different tables or passages of the source.

Columns and labels:
M. abscessus PPAT = M. abscessus PPAT (Mycobacteroides abscessus, UniProt B1MDL6); format: binding, Mycobacterium abscessus; settings: Table 1; 10 μM PPAT, 5 mM compound, 5% DMSO
M. abscessus PPAT, sequence (B1MDL6 whole entry): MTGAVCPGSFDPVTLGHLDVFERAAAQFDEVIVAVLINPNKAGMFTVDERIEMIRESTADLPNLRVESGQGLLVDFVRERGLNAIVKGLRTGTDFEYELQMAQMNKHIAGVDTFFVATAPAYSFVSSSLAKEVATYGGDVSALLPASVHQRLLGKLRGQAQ

Mab PPAT = Mab PPAT (Mycobacteroides abscessus, UniProt B1MDL6); assay: Isothermal titration calorimetry (ITC) on Mab PPAT; format: binding, Mycobacterium abscessus; settings: for Kd: ITC
Mab PPAT, sequence (B1MDL6 whole entry, the tested form may be a part): as the sequence (B1MDL6 whole entry) above
Procedure: ITC experiments were done using an ITC200 (MicroCal) instrument. The Mab PPAT protein for ITC was dialysed overnight at 4°C in storage buffer (50 mM Tris-HCl pH 8.0, 150 mM NaCl) the same buffer was used for preparing the ligand solutions. The protein and ligands/fragments were used at a concentration of 72 μM and 1–5 mM, respectively. ITC recorded for ATP was done in buffer: 50 mM Hepes pH 8.0, 150 mM NaCl, 5 mM MgCl2, at Mab PPAT concentration of 200 uM and 3 mM ATP. Buffer components and other constituents like DMSO were kept constant in both protein and ligand solutions. Ligands to buffer titrations were subtracted in all cases and experiments were repeated at least twice. Data were analysed using the Origin software (OriginLab, Northampton, MA, United States).

Mtb PPAT = molecular target: Mtb PPAT; parameters: method as in El Bakali et al., 2020; settings: ref El Bakali et al., 2020; cited from earlier work
[1] = system: M. abscessus ATCC19977 whole-cell cultures; assay: Whole-cell luciferase-reporter based luminescence assay; parameters: species or system Mycobacterium abscessus; settings: up to a concentration of 200 µM; in comparison to positive control Amikacin; data not shown
[2] = Mab PPAT 72 μM, 50 mM Tris-HCl pH 8.0, 150 mM NaCl, read-out: Kd (Mab PPAT)
[3] = Mab PPAT, 50 mM Tris-HCl pH 8.0, 150 mM NaCl, read-out: Kd

## O=C(O)Cn1ccc2ccccc21 [Fragment 16]
M. abscessus PPAT
  ΔΤm: -0.5 °C

## Nc1ncnc2c1ncn2[C@@H]1O[C@H](COP(=O)(O)OP(=O)(O)OP(=O)(O)O)[C@@H](O)[C@H]1O [ATP, Adenosine 5′ triphosphate, reference compound]
Mab PPAT; 50 mM Hepes pH 8.0, 150 mM NaCl, 5 mM MgCl2, Mab PPAT 200 uM, 3 mM ATP, read-out: Kd
  Kd: 20.1 ± 3.3 µM

## Cc1ccc(C(=O)O)c(C(=O)O)n1 [Fragment 10]
M. abscessus PPAT
  ΔΤm: +2.0 °C

## O=C(O)c1cnn(-c2ccccc2)c1OCCCc1c[nH]c2ccccc12 [Compound 20]
Mab PPAT; [2]
  Kd: 3.2 ± 0.8 µM
Mab PPAT; Mab PPAT versus Mtb PPAT (Kd 15 ± 4 µM)
  binding affinity on Mab PPAT relative to that on Mtb PPAT: ~5 fold
Mab PPAT; Mab PPAT, compound versus ATP
  affinity relative to affinity of Mab PPAT for the substrate ATP: ≈ 7 fold
Mtb PPAT
  Kd: 15 ± 4 µM
[1]
  cellular activity on whole-cell cultures: low cellular activity

## O=C(O)Cc1ccc2ccccc2c1 [Fragment 9]
M. abscessus PPAT
  ΔΤm: +2.3 °C

## O=C(O)c1ccc2cc(F)ccc2c1 [Fragment 8]
M. abscessus PPAT
  ΔΤm: +2.9 °C

## O=C(O)c1cc2ccccc2cc1O [Fragment 11]
M. abscessus PPAT
  ΔΤm: +2.0 °C

## CC(C)(COP(=O)(O)OP(=O)(O)OC[C@H]1O[C@@H](n2cnc3c(N)ncnc32)[C@H](O)[C@@H]1OP(=O)(O)O)[C@@H](O)C(=O)NCCC(=O)NCCS [Coenzyme A, reference compound]
Mab PPAT; [2]
  Kd: 8.2 ± 1.1 µM

## O=C(O)C(O)c1cccc(Oc2ccccc2)c1 (stereo not shown) [Fragment 4]
M. abscessus PPAT
  ΔΤm: +2.5 °C

## Cc1ccc2oc(=O)cc(O)c2c1 [Fragment 15]
M. abscessus PPAT
  ΔΤm: +0.5 °C

## O=C(O)C(O)Cc1c[nH]c2ccccc12 (stereo not shown) [Fragment 12]
M. abscessus PPAT
  ΔΤm: +1.5 °C

## O=C(O)c1ccc2[nH]nc(Br)c2c1 [Fragment 2]
M. abscessus PPAT
  ΔΤm: +12.5 °C

## Cc1c(C(=O)O)cnn1-c1ccccc1 [Fragment 1]
M. abscessus PPAT
  ΔΤm: +6 °C
Mab PPAT; [3]
  Kd: 540 ± 20 µM

## O=C(O)c1ccccc1C(=O)c1ccc(Cl)c([N+](=O)[O-])c1 [Fragment 6]
M. abscessus PPAT
  ΔΤm: +4.5 °C

## N#Cc1ccc(Cl)cc1N [Fragment 13]
M. abscessus PPAT
  ΔΤm: +1.5 °C

## O=C(O)CCn1ccc2ccccc21 [Fragment 14]
M. abscessus PPAT
  ΔΤm: +1 °C

## O=C(O)c1cc2cc(F)ccc2[nH]1 [Fragment 7]
M. abscessus PPAT
  ΔΤm: +3.5 °C

## O=C(O)CCc1c[nH]c2ccccc12 [Fragment 5]
M. abscessus PPAT
  ΔΤm: +3.5 °C
Mab PPAT; [3]
  Kd: 3200 ± 20 µM

## Cc1cn(CCC(=O)O)c2ccccc12 [Fragment 3]
M. abscessus PPAT
  ΔΤm: +0.5 °C
